Columns and labels:
Assay in all cases: relative viability (nuclei count vs DMSO), 5 days (fraction); higher = more cells survive
[1] = test system: A-427
How it was run: (§1)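 A single step with final 0.05% Triton X-100, 1% formaldehyde and 1 ug/ml Hoechst fixed the cells and stained nuclei 5 days after treatment. Lung cancer cell lines in 1536-well plates had been treated by pin tool the day after seeding with one drug alone or a fixed anchor-drug dose plus five library-drug doses (not always all listed) in √10 steps, and nuclei were counted on 4× images. Relative viability is the ratio of nuclei in treated wells to nuclei in vehicle wells, taken as the median of duplicate plates.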

[2] = test system: NCI-H2170
How it was run: as §1

[3] = test system: HARA
How it was run: as §1

[4] = test system: NCI-H322M
How it was run: as §1

[5] = test system: LK-2
How it was run: as §1

[6] = test system: SK-MES-1
How it was run: as §1

[7] = test system: ABC-1
How it was run: as §1

[8] = test system: PC-3 [JPC-3]
How it was run: as §1

[9] = test system: LXF-289
How it was run: as §1

[10] = test system: NCI-H727
How it was run: as §1

[11] = test system: SW 1573
How it was run: as §1

[12] = test system: EMC-BAC-2
How it was run: as §1

[13] = test system: HOP-62
How it was run: as §1

[14] = test system: NCI-H1944
How it was run: as §1

[15] = test system: NCI-H1792
How it was run: as §1

[16] = test system: NCI-H596
How it was run: as §1

[17] = test system: NCI-H522
How it was run: as §1

[18] = test system: NCI-H2228
How it was run: as §1

[19] = test system: NCI-H1993
How it was run: as §1

[20] = test system: SW 900
How it was run: as §1

[21] = test system: NCI-H3122
How it was run: as §1

[22] = test system: NCI-H2009
How it was run: as §1

For CC(=O)O[C@@]12CO[C@@H]1C[C@H](O)[C@@]1(C)C(=O)[C@H](O)C3=C(C)[C@@H](OC(=O)[C@H](O)[C@@H](NC(=O)OC(C)(C)C)c4ccccc4)C[C@@](O)([C@@H](OC(=O)c4ccccc4)[C@H]21)C3(C)C [Docetaxel] + COc1cccc2cc(-c3nc([C@H]4CC[C@H](C(=O)O)CC4)n4ncnc(N)c34)[nH]c12 [OSI-027] (partner 0.5 µM), the relative viability ([1]; first compound 0.0002 µM) was 0.465, the relative viability ([1]; first compound 0.000632 µM) was 0.435 and the relative viability ([1]; first compound 0.002 µM) was 0.224. The relative viability ([1]; first compound 0.006325 µM) was 0.235, the relative viability ([1]; first compound 0.02 µM) was 0.155 and the relative viability ([2]; first compound 0.0002 µM) was 0.734. It also gave a relative viability ([2]; first compound 0.000632 µM) of 0.754, a relative viability ([2]; first compound 0.002 µM) of 0.339 and a relative viability ([2]; first compound 0.006325 µM) of 0.256. It also gave a relative viability ([3]; first compound 0.0002 µM) of 0.341, a relative viability ([3]; first compound 0.000632 µM) of 0.159 and a relative viability ([3]; first compound 0.002 µM) of 0.0997. For the same compound, the relative viability ([3]; first compound 0.006325 µM) was 0.106, the relative viability ([3]; first compound 0.02 µM) was 0.0539 and the relative viability ([4]; first compound 0.0002 µM) was 0.531. The relative viability ([4]; first compound 0.000632 µM) was 0.532, the relative viability ([4]; first compound 0.002 µM) was 0.471 and the relative viability ([4]; first compound 0.006325 µM) was 0.383. The relative viability ([4]; first compound 0.02 µM) was 0.279, the relative viability ([5]; first compound 0.0002 µM) was 0.208 and the relative viability ([5]; first compound 0.000632 µM) was 0.186. For the same compound, the relative viability ([5]; first compound 0.002 µM) was 0.159, the relative viability ([5]; first compound 0.006325 µM) was 0.171 and the relative viability ([5]; first compound 0.02 µM) was 0.153. The relative viability ([6]; first compound 0.0002 µM) was 0.621, the relative viability ([6]; first compound 0.000632 µM) was 0.506 and the relative viability ([6]; first compound 0.002 µM) was 0.276. It also gave a relative viability ([6]; first compound 0.006325 µM) of 0.22, a relative viability ([6]; first compound 0.02 µM) of 0.112 and a relative viability ([7]; first compound 0.0002 µM) of 0.443. It also gave a relative viability ([7]; first compound 0.000632 µM) of 0.562, a relative viability ([7]; first compound 0.002 µM) of 0.289 and a relative viability ([7]; first compound 0.006325 µM) of 0.178. The relative viability ([7]; first compound 0.02 µM) was 0.186, the relative viability ([8]; first compound 0.0002 µM) was 0.703 and the relative viability ([8]; first compound 0.000632 µM) was 0.79. It also gave a relative viability ([8]; first compound 0.002 µM) of 0.441, a relative viability ([8]; first compound 0.02 µM) of 0.15 and a relative viability ([9]; first compound 0.0002 µM) of 0.819. The relative viability ([9]; first compound 0.000632 µM) was 0.652, the relative viability ([9]; first compound 0.006325 µM) was 0.117 and the relative viability ([9]; first compound 0.02 µM) was 0.067. For the same compound, the relative viability ([10]; first compound 0.0002 µM) was 0.804, the relative viability ([10]; first compound 0.000632 µM) was 0.615 and the relative viability ([10]; first compound 0.002 µM) was 0.415. The relative viability ([10]; first compound 0.006325 µM) was 0.544, the relative viability ([10]; first compound 0.02 µM) was 0.361 and the relative viability ([11]; first compound 0.0002 µM) was 0.677. The relative viability ([11]; first compound 0.000632 µM) was 0.326, the relative viability ([11]; first compound 0.002 µM) was 0.199 and the relative viability ([11]; first compound 0.02 µM) was 0.124. For the same compound, the relative viability ([12]; first compound 0.0002 µM) was 0.424, the relative viability ([12]; first compound 0.000632 µM) was 0.327 and the relative viability ([12]; first compound 0.002 µM) was 0.257. For the same compound, the relative viability ([12]; first compound 0.006325 µM) was 0.25, the relative viability ([12]; first compound 0.02 µM) was 0.172 and the relative viability ([13]; first compound 0.0002 µM) was 0.835. The relative viability ([13]; first compound 0.000632 µM) was 0.631, the relative viability ([13]; first compound 0.002 µM) was 0.369 and the relative viability ([14]; first compound 0.0002 µM) was 0.38. The relative viability ([14]; first compound 0.000632 µM) was 0.423, the relative viability ([14]; first compound 0.002 µM) was 0.26 and the relative viability ([14]; first compound 0.02 µM) was 0.139. It also gave a relative viability ([15]; first compound 0.0002 µM) of 0.673, a relative viability ([15]; first compound 0.000632 µM) of 0.699 and a relative viability ([15]; first compound 0.002 µM) of 0.545. The relative viability ([15]; first compound 0.006325 µM) was 0.409, the relative viability ([15]; first compound 0.02 µM) was 0.186 and the relative viability ([16]; first compound 0.0002 µM) was 0.805. It also gave a relative viability ([16]; first compound 0.000632 µM) of 0.767, a relative viability ([16]; first compound 0.002 µM) of 0.505 and a relative viability ([16]; first compound 0.006325 µM) of 0.372. It also gave a relative viability ([16]; first compound 0.02 µM) of 0.241, a relative viability ([17]; first compound 0.0002 µM) of 0.666 and a relative viability ([17]; first compound 0.000632 µM) of 0.657. For the same compound, the relative viability ([17]; first compound 0.002 µM) was 0.541, the relative viability ([17]; first compound 0.006325 µM) was 0.496 and the relative viability ([17]; first compound 0.02 µM) was 0.426. For the same compound, the relative viability ([18]; first compound 0.0002 µM) was 0.456, the relative viability ([18]; first compound 0.000632 µM) was 0.147 and the relative viability ([18]; first compound 0.002 µM) was 0.159. It also gave a relative viability ([18]; first compound 0.006325 µM) of 0.161, a relative viability ([18]; first compound 0.02 µM) of 0.112 and a relative viability ([19]; first compound 0.0002 µM) of 0.556. For the same compound, the relative viability ([19]; first compound 0.000632 µM) was 0.616, the relative viability ([19]; first compound 0.002 µM) was 0.6 and the relative viability ([19]; first compound 0.006325 µM) was 0.501. For the same compound, the relative viability ([19]; first compound 0.02 µM) was 0.414, the relative viability ([20]; first compound 0.0002 µM) was 0.298 and the relative viability ([20]; first compound 0.000632 µM) was 0.245. The relative viability ([20]; first compound 0.002 µM) was 0.177, the relative viability ([20]; first compound 0.006325 µM) was 0.18 and the relative viability ([20]; first compound 0.02 µM) was 0.109. For the same compound, the relative viability ([21]; first compound 0.0002 µM) was 0.932, the relative viability ([21]; first compound 0.000632 µM) was 0.861 and the relative viability ([21]; first compound 0.002 µM) was 0.227. It also gave a relative viability ([21]; first compound 0.006325 µM) of 0.168, a relative viability ([21]; first compound 0.02 µM) of 0.118 and a relative viability ([22]; first compound 0.0002 µM) of 0.618. The relative viability ([22]; first compound 0.000632 µM) was 0.66, the relative viability ([22]; first compound 0.002 µM) was 0.491 and the relative viability ([22]; first compound 0.006325 µM) was 0.231. The relative viability ([22]; first compound 0.02 µM) was 0.134.

Reference: the supplement of paper PMC10307832
